Measurements reported in US20210008161A1, “METHODS AND COMPOSITIONS FOR IMPROVED HOMOLOGY DIRECTED REPAIR” (CRISPR THERAPEUTICS AG, priority 2019, published 2021).

What was measured:
HEK293 T cells [1] = assay: Gene correction by NHEJ repair at GSD1a locus with dsDNA donors; type: cell-based, human; settings: dsDNA donor 50-0 or 150-0, 2.5 μM Nu7441, 1.25 μM SCR7 or 10 μM RS-1, vs DMSO alone, FIG. 3
Method: The effect of Nu7441 treatment on gene correction by the NHEJ pathway was also evaluated. To do so, the cells were transfected with two different dsDNA donors: 50-0 (SEQ ID NO: 37) or 150-0 (SEQ ID NO: 38). Cells were edited with 1.5 μg dsDNA donor. These dsDNA donors, lacking homology arms, introduce a second 3′ splice site into exon 2 at the GSD1a locus when inserted into the cut site induced by the Cas9-guide complex by NHEJ repair. The cells were treated with 2.5 μM Nu7441, 1.25 μM SCR7, or 10 μM RS-1 and gene correction by NHEJ repair was evaluated. […] Treatment with SCR7 or RS-1 had no effect over DMSO alone.

HEK293 T cells [2] = assay: TIDE analysis of DSB repair at CFTR gene locus; type: cell-based, human
Method: The effect of Nu7441 treatment on HDR was also evaluated at the CFTR gene locus in HEK293 T cells. To do so cells were electroporated with RNP comprising Cas9 and a gRNA targeting the CFTR gene locus (SEQ ID NO: 18; sgRNA target sequence identified by SEQ ID NO: 19). 2×10^5 cells were edited with 1 μM Cas9 and 1.5 μM gRNA. The cells were transfected with a ssODN donor (SEQ ID NO: 42). Cells were edited with 100 μM ssODN. The ssODN contains homology arms spanning both sides of the DSB induced by the Cas9-guide and is designed to include 3 additional base pairs (GCA) into the CFTR gene to aid detection of HDR. Cells were also treated with 5 μM Nu7441. Gene correction was assessed by TIDE analysis. TIDE analysis uses a pair of PCR reactions and standard capillary sequencing runs to identify mutations induced at the site of a DSB (see e.g., Brinkman (2014) Nucleic Acids Res 42:e168). The type of mutation induced at the DSB was indicative of the pathway used to repair the DSB. Formation of an indel comprising either an insertion or a deletion of bases was considered due to NHEJ repair; a deletion of 2-3 base pairs was considered due to MMEJ repair; while an insertion of 3 base pairs was considered due to HDR repair. Shown in FIGS. 4A-4B are mutations introduced at the DSB for cells treated with Nu7441 (FIG. 4B) compared to a DMSO negative control (FIG. 4A). […] This reduction in NHEJ repair in the presence of Nu7441 was evaluated with an additional ssODN donor (SEQ ID NO: 41).

CD34-expressing LT-HSPCs = assay: HDR insertion of AAV-delivered GFP donor into HBB locus (GFP fluorescence); type: cell-based, human
Method: Frozen CD34-expressing LT-HSPCs derived from plerixafor (i.e., Mozibil®)+GCSF-dual mobilized peripheral blood obtained from healthy human donors were purchased from a commercial vendor. LT-HSPCs were maintained in culture media comprised of the reagents shown in Table 4 and were incubated at 37° C., 5% carbon dioxide, 4% oxygen. […] 2×10^5 cells were edited with 3 μg Cas9 and 3 μg gRNA. The target gene sequence (including target sequence with PAM), R02 spacer sequence, and R02 sgRNA sequence are identified in Table 3.
The cells were transfected with a dsDNA homology donor encoding GFP under a SFFV promoter (SEQ ID NO: 60) that was delivered by AAV (SEQ ID NO: 56). […] The HDR efficiency was determined by measuring the level of GFP fluorescence in the cells following electroporation. To determine the effect of 53BP1 inhibition on HDR efficiency, the 53BP1 inhibitor i53 was introduced as an mRNA-encoded protein to the cells during electroporation with Cas9/gRNA RNP and AAV DNA that serves as a donor for homology directed repair.
The effect of 53BP1 inhibition on HDR efficiency was compared to other mRNA-encoded proteins that inhibit the NHEJ pathway. These included the proteins CYREN1 and CYREN2 that inhibit Ku70/80, a heterodimer that binds DNA blunt ends to prevent processing of 3′ single-stranded DNA tails necessary for HDR repair. Cells were electroporated with RNP, an AAV-GFP homology donor and mRNA encoding either i53 (mRNA ORF shown in SEQ ID NO: 69), CYREN1, or CYREN2.
The effect of treatment with i53 and Nu7441 was compared for improving efficiency of HDR repair of the HBB locus. Cells were treated with different doses of Nu7441 or with mRNA encoding i53 (ORF shown by SEQ ID NO: 69).

[3] = test system: human LT-HSPCs administered to cKit mice; assay: Erythroid cell enucleation in mouse bone marrow; type: in vivo; settings: bone marrow 16 weeks; vs cells treated with RNP-only or AAV-only; FIG. 28
Method: The functionality of the hematopoietic compartment in recipient mice was evaluated by measuring erythroid cell enucleation in bone marrow collected at 16 weeks post-engraftment. Mammalian erythrocytes extrude their nucleus prior to entering circulation. Human CD34-expressing LT-HSPCs are expected to differentiate into erythrocytes following engraftment, however the efficiency of enucleation can be low. Assessment of erythroid cell enucleation provides a measure of the ability of edited CD34 expressing cells to differentiate into erythroid cells compared to the unedited controls (i.e., ability to differentiate into functional cell types). Percent enucleation was compared for LT-HSPCs gene edited with Cas9/gRNA RNP and AAV given pre-EP or post-EP. […] Additionally, levels of enucleation were compared for LT-HSPCs gene edited with RNP+AAV in the presence of i53 or Nu7441.

[4] = test system: CD34-expressing LT-HSPCs derived from human patients with sickle cell disease; assay: Erythrocyte functionality: cell-surface markers and enucleation by flow cytometry; type: cell-based; settings: day 18 post editing
Method: The ability of edited cells to differentiate to functional erythrocytes was assessed by determining expression of erythrocyte-associated cell surface markers and enucleation using flow cytometry on day 18 post editing.
Briefly, 4×10^5 cells were obtained, and half were stained for erythrocyte cell-surface markers and half were used for detection of enucleation. For staining cell-surface markers, the cells were incubated in PBS containing 1% human serum albumin (PBS-A) and an antibody cocktail of anti-CD233 (BRIC6-Band3)-FITC, anti-CD71-PE, anti-CD235a(GlyA)-PE/Cy7, and anti-CD49d (a4)-VioBlue. For detection of enucleation, 2 drops of NucRed nuclear staining reagent was added to 1 mL PBS-A, and 100 μL was added to plated cells. Following incubation, both cell samples were labeled with Sytox Blue solution (1:1000 dilution in PBS-A) for live/dead analysis. Samples were then assessed by flow cytometry.

[5] = either ssODN donor (SEQ ID NO: 41 or 42), FIG. 5
[6] = 0.75 μg mRNA encoding i53, 5 μM Nu7441, control mRNA DM, FIG. 6C

O=c1cc(N2CCOCC2)oc2c(-c3cccc4c3sc3ccccc34)cccc12 [Nu7441]
gene correction by NHEJ repair (HEK293 T cells [1]): substantial decrease
HDR repair (+3 base pair insertion) at the DSB (HEK293 T cells [2]; 5 μM Nu7441, ssODN SEQ ID NO: 42, FIG. 4): much higher levels
indel formation (NHEJ repair) (HEK293 T cells [2]; 5 μM Nu7441, ssODN SEQ ID NO: 42, vs DMSO negative control, FIG. 4): dramatically reduced
HDR repair (HEK293 T cells [2]; [5]): increase
indel formation due to NHEJ repair (HEK293 T cells [2]; [5]): decreased levels
HDR efficiency (CD34-expressing LT-HSPCs; [6]): comparable increase
levels of erythroid cell enucleation [3]: similar

O=C(Nc1ccc(Br)cc1)c1ccc(Br)c(S(=O)(=O)NCc2ccccc2)c1 [RS-1]
gene correction by NHEJ repair (HEK293 T cells [1]): no effect

O=c1[nH]c(=S)[nH]c(N=Cc2ccccc2)c1N=Cc1ccccc1 [SCR7]
gene correction by NHEJ repair (HEK293 T cells [1]): no effect

i53: polypeptide inhibitor of 53BP1 (SEQ ID NO: 70), introduced as an mRNA-encoded protein (ORF SEQ ID NO: 69)
HDR efficiency (CD34-expressing LT-HSPCs; [6]): comparable increase
HDR efficiency at each dose (CD34-expressing LT-HSPCs; 0.5, 1, and 2 μg i53 mRNA, FIG. 6A): improved
fold increase in HDR efficiency (CD34-expressing LT-HSPCs; GFP donor into HBB locus, mRNA encoding i53, over RNP+AAV-only, FIG. 6A): approximately 1.3 fold
HDR efficiency (CD34-expressing LT-HSPCs; mRNA-encoded proteins, i53 mRNA at 0.3 μg or 1 μg, over RNP+AAV-only, FIG. 6B): increased
levels of erythroid cell enucleation [3]: similar
cell population having enucleation ([4]; comparable to mock EP control cells): > 30%
cell population CD71−GlyA+ erythrocytes ([4]; similar to mock EP control cells): > 30%
